According to ChEMBL document CHEMBL6087459 (J Med Chem, 2025):

Key:
Cryptosporidium parvum = experiment: Antiparasitic activity against Cryptosporidium parvum Iowa oocyst infected in human HCT-8 cells assessed as reduction in asexual replication pre-infected with cells for 3 hrs followed by compound addition and measured after 48 hrs by staining based automated fluorescence microscopic analysis; format: functional, organism-based
HCT-8 = experiment: Cytotoxicity against human HCT-8 cells assessed as reduction in cell numbers upto 50 uM incubated for 48 hrs by high-density microscopic celltiter aqueous assay; format: toxicity, cell-based; conditions: hct-8, 48 h

EC50 (Cryptosporidium parvum) [µM]	Compound	Activity (HCT-8)
11	CCc1nn(C)c2nc(-c3ccc(N4CCC(C(=O)O)CC4)cc3)nc(NCc3ccc(F)cc3)c12	Non-toxic
> 50	CCc1nn(C)c2ncnc(NCc3ccc(F)cc3)c12	Non-toxic
> 25	CCOC(=O)c1ccc(-c2nc(NCc3ccc(F)cc3)c3c(CC)nn(C)c3n2)cc1	Non-toxic
> 50	CCc1nn(C)c2nc(C(=O)O)nc(NCc3ccc(F)cc3)c12	Non-toxic
7.7	CCc1nn(C)c2nc(-c3ccccc3OC)nc(NCc3ccc(F)cc3)c12	Non-toxic
4.5	CCc1nn(C)c2nc(-c3c(C)noc3C)nc(NCc3ccc(F)cc3)c12	Non-toxic
16	CCc1nn(C)c2nc(-c3ccccc3)nc(NCc3ccc(F)cc3)c12	Non-toxic
> 50	CCc1nn(C)c2nc(-c3ccc4c(c3)OCO4)nc(NCc3ccc(F)cc3)c12	Non-toxic
21	CCc1nn(C)c2nc(-c3ccc(Cl)c(Cl)c3)nc(NCc3ccc(F)cc3)c12	Non-toxic
1.2	CCc1nn(C)c2nc(-c3cccc(C(=O)O)c3)nc(NCc3ccc(F)cc3)c12	Non-toxic
5.5	CCc1nn(C)c2nc(-c3ccc(S(C)(=O)=O)cc3)nc(NCc3ccc(F)cc3)c12	Non-toxic
2.5	CCc1nn(C)c2nc(-c3cccc(S(N)(=O)=O)c3)nc(NCc3ccc(F)cc3)c12	Non-toxic
5	CCc1nn(C)c2nc(-c3ccc(O)cc3)nc(NCc3ccc(F)cc3)c12	Non-toxic
16	CCc1nn(C)c2nc(-c3ccc(CO)cc3)nc(NCc3ccc(F)cc3)c12	Non-toxic
7.2	CCc1nn(C)c2nc(-c3ccc(OC)c(OC)c3)nc(NCc3ccc(F)cc3)c12	Non-toxic
1.8	CCc1nn(C)c2nc(C3=CCC(C(=O)O)CC3)nc(NCc3ccc(F)cc3)c12 (centres undefined)	Non-toxic
4.7	CCc1nn(C)c2nc(-c3ccc(C(=O)O)nc3)nc(NCc3ccc(F)cc3)c12	Non-toxic
27	CCc1nn(C)c2nc(-c3ccc(C(N)=O)cc3)nc(NCc3ccc(F)cc3)c12	Non-toxic
2.9	CCc1nn(C)c2nc(-c3ccc(Nc4ccc(C(=O)O)cn4)cc3)nc(NCc3ccc(F)cc3)c12	Non-toxic
> 50	CCc1nn(C)c2nc(-c3ccc4c(c3)COC4=O)nc(NCc3ccc(F)cc3)c12	Non-toxic
3.4	CCc1nn(C)c2nc(-c3ccc(C(=O)O)c(F)c3)nc(NCc3ccc(F)cc3)c12	Non-toxic
5.8	CCc1nn(C)c2nc(-c3ccc(-c4nnn[nH]4)cc3)nc(NCc3ccc(F)cc3)c12	Non-toxic
15	CCc1nn(C)c2nc(-c3ccc(OC)cc3)nc(NCc3ccc(F)cc3)c12	Non-toxic
> 50	CCc1nn(C)c2nc(-c3ccc(P(=O)(O)O)cc3)nc(NCc3ccc(F)cc3)c12	Non-toxic
8.6	CCc1nn(C)c2nc(-c3ccncc3)nc(NCc3ccc(F)cc3)c12	Non-toxic
9.3	CCc1nn(C)c2nc(CCC(=O)O)nc(NCc3ccc(F)cc3)c12	Non-toxic
> 25	CCc1nn(C)c2nc(-c3ccc(C#N)cc3)nc(NCc3ccc(F)cc3)c12	Non-toxic
> 50	CCc1nn(C)c2nc(-c3cncnc3)nc(NCc3ccc(F)cc3)c12	Non-toxic
4.4	CCc1nn(C)c2nc(-c3ccc(C4CCC(C(=O)O)CC4)cc3)nc(NCc3ccc(F)cc3)c12 (centres undefined)	Non-toxic
–	CC(=O)Oc1ccccc1C(=O)Nc1ncc([N+](=O)[O-])s1 [NITAZOXANIDE]	Non-toxic
